Data on five molecules can be found in patent US10351613B2, “Polypeptide for inhibition of tumor” (G-Bio Pharma Tech Co., Ltd., priority 2015, dated 2019).

≈ marks a conversion by molar mass, not a printed value. Like-named read-outs stand apart in the source and are kept apart here. Residues, ends and D or L forms follow the SMILES beside them.

Series [1] has as its system tumor cell HepG2. Format: cell-based. Here is the method: (§1) Inhibition of cell growth was detected by a MTT method, which is based on the principle that succinate dehydrogenase in the mitochondria of the live cells could reduce the exogenous MTT (3-(4,5-dimethyl-2-thiazolyl)-2,5-diphenyl-tetrazolium bromide) to a […] Formazan which is a blue-violet crystal, and precipitates in the cells, while the death cells could not reduce MTT. DMSO could dissolve Formazan in the cells. Absorbance value of the solution was determined at 490/570 nm by microplate reader, which could indirectly indicate the amount of the live cells. The amount of the crystal from MTT is proportional to the amount of the cells within a certain range of cell number. The supernate from the HUVEC or tumor cells in exponential phase was removed and the cells were washed by PBS once. 1 ml 0.25% trypsin (4° C.) was added for digestion at 37° C. for 2 min. Then the supernate was added for neutralization and the cells were dispersed to form a suspension and the suspension was centrifuged at 1000 rpm for 3 min. The supernate was removed and 5 ml culture mediums were added for resuspension. Cells were inoculated in a 48-well plate by 500 ul/well at the concentration of 3×10^4/ml and then incubated under 5% CO2, 37° C. for 24 hours. The supernate was removed and a culture medium containing polypeptide (Zn^2+ in the culture medium was present at the concentration of 17.39 μmol/L) was added for further incubation for 48 hours. Supernate in each well was carefully removed. The well was gently washed by PBS once in an amount of 450 μl/well. 450 μl MTT culture mediums were added into each well for further cultivation for 4 hours. The supernate was carefully discarded. DMSO was added in an amount of 450 μl/well and then the plate was placed in a shaking bed for oscillation for 10 min in dark. 150 μl supernates were transferred to a 96-well ELISA plate and absorbance value of each well was detected at 490 nm and 570 nm by the microplate reader.

The subject of series [2] is Human Umbilical Vein Endothelial Cell (HUVEC). In kind it is cell-based. As to conditions: for biological activity compared with P2: inhibition of HUVEC and HepG2. How it is done: 20 cm umbilical cord adjacent to fetus was taken, cleaned by washing, ligated at both ends, placed into 150 ml preservation solutions for umbilical cord, and stored in a 4° C. refrigerator for digestion for 6 hours. The umbilical cord was inspected to remove the damaged portion. The umbilical vein was thoroughly cleaned by washing and then 10 ml collagenase solution was injected. Then the umbilical vein was transferred to a 37° C. incubator for digestion for 15 minutes. The umbilical cord was removed and the digested solution was recovered. The digested solution was washed by PBS and centrifuged. After centrifugation, the cells were culture by re-suspension.
as §1

Series [3] deals with Human liver cancer BEL7404 tumor model. In kind it is in vivo. As to conditions: for Tumor inhibitor rate (%): BEL7404, day 21, polypeptides 15 mg/kg sc 2 times per day 21 days, endostatin/endostar 50 mg/kg sc, CTX 30 mg/kg ip 7 days. How it is done: In vitro cultured tumor cells in exponential phase and in good state were formulated to a 100 μl cell suspension containing 5×10^6 tumor cells. The suspension was subcutaneously inoculated to nude mice. Well-grown solid tumors were obtained 15 days later and cut into uniform pieces of about 3 mm under sterile condition. Each nude mouse was inoculated by one piece through a trocar. Mice were re-grouped according the tumor size 10-14 days after inoculation and animals having too large and too small tumor were excluded from the test. The average tumor volume for each group was basically identical. Test drugs were administered to each group according to the experimental protocol. The major axis (a) and minor axis (b) of the tumor were measured twice a week. Animals were sacrificed at the end of the test. The tumor was taken out, weighed and photos were taken. Tumor volume (TV)=½×a×b^2; Relative tumor volume (RTV)=Vt/Vo, wherein Vo is the tumor volume measured before grouping (one day before administration of the test drug), and Vt is the tumor volume measured at each time. Tumor inhibition rate (%)=(1−T/C)×100%, wherein T is the average tumor volume of the treatment group and C is the average tumor volume of the negative control group.
The amino acid sequence of recombination endostatin (“endostatin”) was set forth in SEQ ID NO: 1, and the amino acid sequence of the marketed drug Endostar (“endostar”) was set forth in SEQ ID NO: 10. Human liver cancer BEL7404 tumor model was constructed according to the method described in Example 10. The test contained 6 groups, with 6 animals in each group, except for the negative control group which contained 9 animals. The molar dose of the polypeptides was basically equal to the molar dose of endostatin. The results are shown in FIGS. 11a and 11b and the following Table.

As to `CC[C@H](C)[C@H](NC(=O)CNC(=O)[C@H](CCCNC(=N)N)NC(=O)[C@H](CCSC)NC(=O)CNC(=O)CNC(=O)[C@H](CO)NC(=O)[C@H](CC(C)C)NC(=O)[C@H](CC(N)=O)NC(=O)[C@H](CO)NC(=O)[C@H](CC(N)=O)NC(=O)[C@H](CC(C)C)NC(=O)[C@H](C)NC(=O)[C@@H](NC(=O)[C@H](CC(C)C)NC(=O)[C@H](Cc1c[nH]cn1)NC(=O)[C@H](CC(C)C)NC(=O)[C@@H](NC(=O)[C@@H]1CCCN1C(=O)[C@H](CCC(N)=O)NC(=O)[C@H](Cc1ccccc1)NC(=O)[C@H](CC(=O)O)NC(=O)[C@H](CCCNC(=N)N)NC(=O)[C@H](Cc1c[nH]cn1)NC(=O)[C@@H](NC(=O)[C@H](Cc1c[nH]cn1)NC(C)=O)[C@@H](C)O)C(C)C)C(C)C)C(=O)N[C@@H](CCCNC(=N)N)C(=O)NCC(=O)N[C@@H](C)C(=O)N[C@@H](CC(=O)O)C(N)=O` [Polypeptide P2T2N18] (Ac-HTHRDFQPVLHLVALNSNLSGGMRGIRGAD-NH2), in series [1], the “IC50 (ug/ml) HepG2” value is 187.9 µg/mL (≈ 56.8 µM). The “Cell Survival (%), 1 mg/ml of polypeptide, HepG2” value (“Cell Survival (%) … HepG2” for short) in series [1] (1) was found to be 7%. Moreover, in series [2], the “IC50 (ug/ml) HUVEC” value turned out to be 71.4 µg/mL (≈ 21.6 µM); the “Cell Survival (%), 1 mg/ml of polypeptide, HUVEC” value (“Cell Survival (%) … HUVEC” below) was 3%; the “biological activity compared with P2” value is on record as “obviously higher than that of P2”. The “reduction of IC50 concentration as compared to that of P2” value in series [2] (HUVEC and HepG2) is given as “about 10 folds”.
`CC[C@H](C)[C@H](NC(=O)CNC(=O)[C@H](CCCNC(=N)N)NC(=O)[C@H](CCSC)NC(=O)CNC(=O)CNC(=O)[C@H](CO)NC(=O)[C@H](CC(C)C)NC(=O)[C@@H]1CCCN1C(=O)[C@H](CO)NC(=O)[C@H](CC(N)=O)NC(=O)[C@H](CC(C)C)NC(=O)[C@H](C)NC(=O)[C@@H](NC(=O)[C@H](CC(C)C)NC(=O)[C@H](Cc1c[nH]cn1)NC(=O)[C@H](CC(C)C)NC(=O)[C@@H](NC(=O)[C@@H]1CCCN1C(=O)[C@H](CCC(N)=O)NC(=O)[C@H](Cc1ccccc1)NC(=O)[C@H](CC(=O)O)NC(=O)[C@H](CCCNC(=N)N)NC(=O)[C@H](Cc1c[nH]cn1)NC(=O)[C@@H](NC(=O)[C@H](Cc1c[nH]cn1)NC(C)=O)[C@@H](C)O)C(C)C)C(C)C)C(=O)N[C@@H](CCCNC(=N)N)C(=O)NCC(=O)N[C@@H](C)C(=O)N[C@@H](CC(=O)O)C(N)=O` [Polypeptide P2T2] (Ac-HTHRDFQPVLHLVALNSPLSGGMRGIRGAD-NH2): in series [1], the “IC50 (ug/ml) HepG2” value was found to be 2169.6 µg/mL (≈ 659 µM). The “Cell Survival (%) … HepG2” value in series [1] (1) is 55%. Also, in series [2], the “IC50 (ug/ml) HUVEC” value is 1506.1 µg/mL (≈ 457 µM); the “Cell Survival (%) … HUVEC” value came to 46%; the “biological activity compared with P2” value is “lower biological activity than P2”.
Take `O=P1(N(CCCl)CCCl)NCCCO1` (centres unmarked) [CTX, Cyclophosphamide, reference compound]: the “Tumor inhibitor rate (%)” value in series [3] is listed as 68.0%. Moreover, the toxic reaction result in series [3] (BEL7404 model, same regimens) is listed as “typical chemotherapeutic toxic side effect”.

B1: endostatin: Recombinant human endostatin, SEQ ID NO: 1, commercially available (protein, listed as Homo sapiens)
chain: HSHRDFQPVLHLVALNSPLSGGMRGIRGADFQCFQQARAVGLAGTFRAFLSSRLQDLYSIVRRADRAAVPIVNLKDELLFPSWEALFSGSEGPLKPGARIFSFDGKDVLRHPTWPQKSVWHGSDPNGRRLTESYCETWRTEAPSATGQASSLLGGRLLGQSAASCHHAYIVLCIENSFMTASK
As to B1, the “IC50 (ug/ml) HepG2” value in series [1] amounted to 2245.4 µg/mL. Further, the “Cell Survival (%) … HepG2” value in series [1] (1 mg/ml) stood at 64%. Also, in series [3], the “Tumor inhibitor rate (%)” value is 41.2%. For the same molecule, in series [2], the “Cell Survival (%) … HUVEC” value was 70%.

B2: endostar: marketed recombinant human endostatin drug, SEQ ID NO: 10 (protein)
chain: MGGSHHHHHHSHRDFQPVLHLVALNAPLSGGMRGIRGADFQCFQQARAVGLAGTFRAFLSSRLQDLYSIVRRADRAAVPIVNLKDELLFPSWEALFSGSEGPLKPGARIFSFDGKDVLRHPTWPQKSVWHGSDPNGRRLTESYCETWRTEAPSATGQASSLLGGRLLGQSAASCHHAYIVLCIENSFMTASK
modifications: Recombinant human endostatin drug, endostar
Turning to B2, the “Cell Survival (%) … HepG2” value in series [1] (1 mg/ml) worked out at 91%. In addition, the “Tumor inhibitor rate (%)” value in series [3] is listed as 28.5%. In series [2], the “Cell Survival (%) … HUVEC” value was 82%.
